# Target: PAD4 enzyme (Homo sapiens (Human), UniProt Q9UM07)
# Assay: Ammonia Release Biochemical Assay (citrullination detected via ammonia release)
# Conditions: PAD4 120 nM, substrate BAEE, 60-min preincubation, read-out: NH3 release
# Experimental: Ammonia Release Biochemical Assay
# Citrullination assay was detected via ammonia release. PAD4 enzyme was diluted to 120 nM in assay buffer (100 mM HEPES, 50 mM NaCl, 2 mM DDT, 0.6 mg/mL BSA, pH 7.4) added to wells containing various concentration of compound or DMSO vehicle (1% final) in black 384 well plate. Following a 60-min preincubation at room temperature, the reaction was initiated by the addition of substrate (1.5 mM BAEE in 200 mM HEPES, 50 mM NaCl, 350 uM CaCl2, 2 mM, pH 7.4). The reaction was stopped after 60 min by addition of stop/detection buffer containing 50 mM EDTA, 2.6 mM of o-phthaladehyde and 2.6 mM DTT. Assay was incubated at room temperature for 90 min before measuring fluorescence's (λex 405/λem 460 nm) on Tecan reader. IC50 was calculated using XL-fit software model 205. (Ref: Nat Chem Biol. 2015 March; 11(3):189-91).
# PAD4 enzyme, sequence (Q9UM07 whole entry): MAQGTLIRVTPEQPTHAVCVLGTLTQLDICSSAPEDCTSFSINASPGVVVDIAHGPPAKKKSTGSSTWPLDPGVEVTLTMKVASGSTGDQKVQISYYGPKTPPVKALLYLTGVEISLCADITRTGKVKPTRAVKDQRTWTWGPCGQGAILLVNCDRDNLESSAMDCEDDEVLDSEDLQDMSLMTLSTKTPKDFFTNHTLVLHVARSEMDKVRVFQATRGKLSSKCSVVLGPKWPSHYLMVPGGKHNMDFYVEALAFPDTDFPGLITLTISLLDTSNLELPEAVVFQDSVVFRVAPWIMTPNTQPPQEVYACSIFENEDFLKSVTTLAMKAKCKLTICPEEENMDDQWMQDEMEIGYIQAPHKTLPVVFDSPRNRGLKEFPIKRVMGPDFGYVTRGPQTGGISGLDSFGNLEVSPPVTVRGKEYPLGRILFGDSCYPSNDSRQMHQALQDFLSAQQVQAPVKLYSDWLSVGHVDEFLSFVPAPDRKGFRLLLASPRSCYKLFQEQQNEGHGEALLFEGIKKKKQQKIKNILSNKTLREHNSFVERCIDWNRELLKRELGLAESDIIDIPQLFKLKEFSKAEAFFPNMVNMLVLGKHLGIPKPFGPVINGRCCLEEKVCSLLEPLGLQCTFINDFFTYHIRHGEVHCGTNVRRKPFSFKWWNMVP
row,SMILES,IC50
1,"CN1CCC(Cn2c(-c3nc4cc(C(=O)N5CCC[C@@H](N)C5)cc5c4n3CCO5)cc3ccccc32)CC1 [Example 45, (R)-(3-aminopiperidin-1-yl)(2-(1-((l-methylpiperidin-4-yl)methyl)-1H-indol-2-yl)-3,4-dihydro-5-oxa-1,2a-diazaacenaphthylen-7-yl)methanone]",≥ 10000 nM
2,"COc1ccc(Cn2c(-c3nc4cc(C(=O)N5CCC[C@@H](N)C5)cc5c4n3CCO5)cc3cc(F)ccc32)cc1 [Example 46, (R)-(3-aminopiperidin-1-yl)(2-(5-fluoro-1-(4-methoxybenzyl)-1H-indol-2-yl)-3,4-dihydro-5-oxa-1,2a-diazaacenaphthylen-7-yl)methanone]",≤ 1000 nM
3,"N[C@@H]1CCCN(C(=O)c2cc3c4c(c2)nc(-c2cc5ccccc5n2CC(F)F)n4CCO3)C1 [Example 47, (R)-(3-aminopiperidin-1-yl)(2-(1-(2,2-difluoroethyl)-1H-indol-2-yl)-3,4-dihydro-5-oxa-1,2a-diazaacenaphthylen-7-yl)methanone]",≤ 1000 nM
4,"COCCn1c(-c2nc3cc(C(=O)N4CCC[C@@H](N)C4)cc4c3n2CCO4)cc2cc(F)ccc21 [Example 48, (R)-(3-aminopiperidin-1-yl)(2-(5-fluoro-1-(2-methoxyethyl)-1H-indol-2-yl)-3,4-dihydro-5-oxa-1,2a-diazaacenaphthylen-7-yl)methanone]",≤ 1000 nM
5,"N[C@@H]1CCCN(C(=O)c2cc3c4c(c2)nc(-c2cc5ccc(F)cc5n2Cc2ccc(F)cc2)n4CCO3)C1 [Example 49, (R)-(3-aminopiperidin-1-yl)(2-(6-fluoro-1-(4-fluorobenzyl)-1H-indol-2-yl)-3,4-dihydro-5-oxa-1,2a-diazaacenaphthylen-7-yl)methanone]",≤ 1000 nM
6,"COc1ccc(Cn2c(-c3nc4cc(C(=O)N5CCC[C@@H](N)C5)cc5c4n3CCO5)cc3ccc(F)cc32)cc1 [Example 50, (R)-(3-aminopiperidin-1-yl)(2-(6-fluoro-1-(4-methoxybenzyl)-1H-indol-2-yl)-3,4-dihydro-5-oxa-1,2a-diazaacenaphthylen-7-yl)methanone]",≤ 1000 nM
7,"COc1ccc2cc(-c3nc4cc(C(=O)N5CCC[C@@H](N)C5)cc5c4n3CCO5)n(Cc3ccc(F)cc3)c2c1 [Example 51, (R)-(3-aminopiperidin-1-yl)(2-(1-(4-fluorobenzyl)-6-methoxy-1H-indol-2-yl)-3,4-dihydro-5-oxa-1,2a-diazaacenaphthylen-7-yl)methanone]",≤ 1000 nM
8,COCCn1c(-c2nc3cc(C(=O)N4CCC[C@@H](N)C4)cc4c3n2CCO4)cc2ccc(F)cc21 [Example 52],1000 to 10000 nM
9,"COCCn1c(-c2nc3cc(C(=O)N4CCC[C@@H](N)C4)cc4c3n2CCO4)cc2cc(F)c(F)cc21 [Example 54, (R)-(3-aminopiperidin-1-yl)(2-(5,6-difluoro-1-(2-methoxyethyl)-1H-indol-2-yl)-3,4-dihydro-5-oxa-1,2a-diazaacenaphthylen-7-yl)methanone]",1000 to 10000 nM
10,"CC(C)Cn1c(-c2nc3cc(C(=O)N4CCC[C@@H](N)C4)cc4c3n2CCO4)cc2cccc(Cl)c21 [Example 55, (R)-(3-aminopiperidin-1-yl)(2-(7-chloro-1-isobutyl-1H-indol-2-yl)-3,4-dihydro-5-oxa-1,2a-diazaacenaphthylen-7-yl)methanone]",≤ 1000 nM
11,"N[C@@H]1CCCN(C(=O)c2cc3c4c(c2)nc(-c2cc5cccc(Cl)c5n2CC(F)F)n4CCO3)C1 [Example 56, (R)-(3-aminopiperidin-1-yl)(2-(7-chloro-1-(2,2-difluoroethyl)-1H-indol-2-yl)-3,4-dihydro-5-oxa-1,2a-diazaacenaphthylen-7-yl)methanone]",≤ 1000 nM
12,"N[C@@H]1CCCN(C(=O)c2cc3c4c(c2)nc(-c2cc5cccc(Cl)c5n2CC2CC2)n4CCO3)C1 [Example 57, (R)-(3-aminopiperidin-1-yl)(2-(7-chloro-1-(cyclopropylmethyl)-1H-indol-2-yl)-3,4-dihydro-5-oxa-1,2a-diazaacenaphthylen-7-yl)methanone]",≤ 1000 nM
13,"N[C@@H]1CCCN(C(=O)c2cc3c4c(c2)nc(-c2cc5cc(/C=C/c6ccccc6)ccc5n2CC2CC2)n4CCO3)C1 [Example 58, (R,E)-(3-aminopiperidin-1-yl)(2-(1-(cyclopropylmethyl)-5-styryl-1H-indol-2-yl)-3,4-dihydro-5-oxa-1,2a-diazaacenaphthylen-7-yl)methanone]",1000 to 10000 nM
14,"Cc1csc(Cn2c(-c3nc4cc(C(=O)N5CCC[C@@H](N)C5)cc5c4n3CCO5)cc3ccccc32)n1 [Example 59, (R)-(3-aminopiperidin-1-yl)(2-(1-((4-methylthiazol-2-yl)methyl)-1H-indol-2-yl)-3,4-dihydro-5-oxa-1,2a-diazaacenaphthylen-7-yl)methanone]",≤ 1000 nM
15,"COc1ccc2c(c1)cc(-c1nc3cc(C(=O)N4CCC[C@@H](N)C4)cc4c3n1CCO4)n2CC1CC1 [Example 60, (R)-(3-aminopiperidin-1-yl)(2-(1-(cyclopropylmethyl)-5-methoxy-1H-indol-2-yl)-3,4-dihydro-5-oxa-1,2a-diazaacenaphthylen-7-yl)methanone]",≤ 1000 nM
16,"N[C@@H]1CCCN(C(=O)c2cc3c4c(c2)nc(-c2cc5ccc(CO)cc5n2CC2CC2)n4CCO3)C1 [Example 61, (R)-(3-aminopiperidin-1-yl)(2-(1-(cyclopropylmethyl)-6-(hydroxymethyl)-1H-indol-2-yl)-3,4-dihydro-5-oxa-1,2a-diazaacenaphthylen-7-yl)methanone]",≤ 1000 nM
17,"CC1(C)COc2cc(C(=O)N3CCC[C@@H](N)C3)cc3nc(-c4cc5ccccc5n4CC4CC4)n1c23 [Example 62, (R)-(3-aminopiperidin-1-yl)(2-(1-(cyclopropylmethyl)-1H-indol-2-yl)-3,3-dimethyl-3,4-dihydro-5-oxa-1,2a-diazaacenaphthylen-7-yl)methanone]",≥ 10000 nM
18,"N[C@@H]1CCCN(C(=O)c2cc3c4c(c2)nc(-c2cc5cc(Br)ccc5n2CC2CC2)n4CCN3)C1 [Example 67, (R)-(3-aminopiperidin-1-yl)(2-(5-bromo-1-(cyclopropylmethyl)-1H-indol-2-yl)-5,6-dihydro-4H-imidazo [1,5,4-de]quinoxalin-8-yl)methanone]",≤ 1000 nM
19,"N[C@@H]1CCCN(C(=O)c2cc3c4c(c2)nc(-c2cc5cc(-c6cccnc6)ccc5n2CC2CC2)n4CCN3)C1 [Example 68, (R)-(3-aminopiperidin-1-yl)(2-(1-(cyclopropylmethyl)-5-(pyridin-3-yl)-1H-indol-2-yl)-5,6-dihydro-4H-imidazo [1,5,4-de]quinoxalin-8-yl)methanone]",1000 to 10000 nM
20,"N[C@@H]1CCCN(C(=O)c2cc3c4c(c2)nc(-c2cc5ccccc5n2Cc2ccccn2)n4CCN3)C1 [Example 69, (R)-(3-aminopiperidin-1-yl)(2-(1-(pyridin-2-ylmethyl)-1H-indol-2-yl)-5,6-dihydro-4H-imidazo[1,5,4-de]quinoxalin-8-yl)methanone]",≤ 1000 nM
21,"N[C@@H]1CCCN(C(=O)c2cc3c4c(c2)nc(-c2cc5ccccc5n2Cc2ccccc2F)n4CCN3)C1 [Example 70, (R)-(3-aminopiperidin-1-yl)(2-(1-(2-fluorobenzyl)-1H-indol-2-yl)-5,6-dihydro-4H-imidazo[1,5,4-de]quinoxalin-8-yl)methanone]",≤ 1000 nM
22,"N[C@@H]1CCCN(C(=O)c2cc3c4c(c2)nc(-c2cc5ccccc5n2Cc2ccncc2)n4CCN3)C1 [Example 71, (R)-(3-aminopiperidin-1-yl)(2-(1-(pyridin-4-ylmethyl)-1H-indol-2-yl)-5,6-dihydro-4H-imidazo[1,5,4-de]quinoxalin-8-yl)methanone]",≤ 1000 nM
23,"COc1ccc2cc(-c3nc4cc(C(=O)N5CCC[C@@H](N)C5)cc5c4n3CCN5C)n(CC3CC3)c2c1 [Example 74, (R)-(3-aminopiperidin-1-yl)(2-(1-(cyclopropylmethyl)-6-methoxy-1H-indol-2-yl)-6-methyl-5,6-dihydro-4H-imidazo[1,5,4-de]quinoxalin-8-yl)methanone]",≤ 1000 nM
24,"CN1CCn2c(-c3cc4cc(F)ccc4n3CC3CC3)nc3cc(C(=O)N4CCC[C@@H](N)C4)cc1c32 [Example 75, (R)-(3-aminopiperidin-1-yl)(2-(1-(cyclopropylmethyl)-5-fluoro-1H-indol-2-yl)-6-methyl-5,6-dihydro-4H-imidazo[1,5,4-de]quinoxalin-8-yl)methanone]",≤ 1000 nM
25,"N[C@@H]1CCCN(C(=O)c2cc3c4c(c2)nc(-c2cc5ccccc5n2CC2CC2)n4CCN3C2CC2)C1 [Example 78, (R)-(3-aminopiperidin-1-yl)(6-cyclopropyl-2-(1-(cyclopropylmethyl)-1H-indol-2-yl)-5,6-dihydro-4H-imidazo[1,5,4-de]quinoxalin-8-yl)methanone]",≤ 1000 nM
26,"N[C@@H]1CCCN(C(=O)c2cc3c4c(c2)nc(-c2cc5ccccc5n2CC2CC2)n4CCN3S(=O)(=O)CCc2ccccc2)C1 [Example 79, (R)-(3-aminopiperidin-1-yl)(2-(1-(cyclopropylmethyl)-1H-indol-2-yl)-6-(phenethylsulfonyl)-5,6-dihydro-4H-imidazo[1,5,4-de]quinoxalin-8-yl)methanone]",1000 to 10000 nM
27,"N[C@@H]1CCCN(C(=O)c2cc3c4c(c2)nc(-c2cc5c(F)cccc5n2CC2CC2)n4CCN3)C1 [Example 80, (R)-(3-aminopiperidin-1-yl)(2-(1-(cyclopropylmethyl)-4-fluoro-1H-indol-2-yl)-5,6-dihydro-4H-imidazo[1,5,4-de]quinoxalin-8-yl)methanone]",1000 to 10000 nM

# From patent publication US11833156B2, “Heterocyclic compounds as pad inhibitors” (JUBILANT EPIPAD LLC, priority 2017, dated 2023)
